Measurements taken from PubChem BioAssay AID328 (DTP/NCI, 2004).
Values joined by “and” are separate entries in the source; they are usually repeats but may differ in a detail not shown here. Equal entries are not always repeated. Inconclusive results and toxic doses are left out.

System: BDF1 mice, P388 leukemia ip, median survival T/C
Test: NCI In Vivo Anticancer Drug Screen. Data for tumor model P388 Leukemia (intraperitoneal) in B6D2F1 (BDF1) mice
Conditions: endpoint: median survival time, higher = longer survival
In short: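 Vehicle-dosed animals serve as the reference; survival of compound-dosed, tumour-implanted mice is divided by it.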

[1] = dose: 50.0 mg/kg/injection, schedule: Q01DX009 (ip), vehicle: saline with Tween-80
[2] = dose: 100.0 mg/kg/injection, schedule: Q01DX009 (ip), vehicle: saline with Tween-80
[3] = dose: 200.0 mg/kg/injection, schedule: Q01DX009 (ip), vehicle: saline with Tween-80
[4] = dose: 100.0 mg/kg/injection, schedule: Q04DX003 (ip), vehicle: Klucel (hydroxypropylcellulose) (HPC)
[5] = dose: 200.0 mg/kg/injection, schedule: Q04DX003 (ip), vehicle: Klucel (hydroxypropylcellulose) (HPC)
[6] = dose: 50.0 mg/kg/injection, schedule: Q04DX003 (ip), vehicle: saline with Tween-80
[7] = dose: 200.0 mg/kg/injection, schedule: Q04DX003 (ip), vehicle: saline with Tween-80
[8] = dose: 100.0 mg/kg/injection, schedule: Q04DX003 (ip), vehicle: saline with Tween-80
[9] = dose: 400.0 mg/kg/injection, schedule: Q04DX003 (ip), vehicle: saline with Tween-80
[10] = dose: 50.0 mg/kg/injection, schedule: Q04DX003 (ip), vehicle: Klucel (hydroxypropylcellulose) (HPC)

Nc1nc(N)c2cc(N3CCCC3c3ccc(Cl)c(Cl)c3)ccc2n1 (stereo not drawn)
T/C (dose: 0.78 mg/kg/injection, schedule: Q01DX009 (ip), vehicle: water): 110 % of control
T/C (dose: 1.56 mg/kg/injection, schedule: Q01DX009 (ip), vehicle: water): 117 % of control
T/C (dose: 3.12 mg/kg/injection, schedule: Q01DX009 (ip), vehicle: water): 113 % of control
T/C (dose: 3.12 mg/kg/injection, schedule: Q04DX003 (ip), vehicle: water): 104 % of control and 109 % of control
T/C (dose: 6.25 mg/kg/injection, schedule: Q01DX009 (ip), vehicle: water): 119 % of control
T/C (dose: 6.25 mg/kg/injection, schedule: Q04DX003 (ip), vehicle: water): 110 % of control and 116 % of control
T/C (dose: 12.5 mg/kg/injection, schedule: Q04DX003 (ip), vehicle: water): 108 % of control and 114 % of control
T/C (dose: 20.0 mg/kg/injection, schedule: Q04DX003 (ip), vehicle: water): 111 % of control
T/C (dose: 25.0 mg/kg/injection, schedule: Q04DX003 (ip), vehicle: water): 116 % of control

CC(=O)OCc1ccc[n+](C2=C([O-])C(=O)C([n+]3cccc(COC(C)=O)c3)=C([O-])C2=O)c1
T/C [1]: 104 % of control
T/C [2]: 98 % of control
T/C [3]: 102 % of control

CC(=O)N1CSCC1C(=O)O (stereo not drawn)
T/C [4]: 100 % of control
T/C [5]: 100 % of control
T/C (dose: 400.0 mg/kg/injection, schedule: Q04DX003 (ip), vehicle: Klucel (hydroxypropylcellulose) (HPC)): 100 % of control

C[C@@H]1O[C@@H](O[C@H]2CC[C@]3(C=O)[C@H]4CC[C@]5(C)[C@@H](c6ccc(=O)oc6)CC[C@]5(O)[C@@H]4CC[C@]3(O)C2)[C@H](O)[C@H](O)[C@H]1O[C@@H]1O[C@H](CO)[C@@H](O)[C@H](O)[C@H]1O
T/C (dose: 0.6 mg/kg/injection, schedule: Q01DX010 (ip), vehicle: carboxymethylcellulose (CMC)): 95 % of control
T/C (dose: 1.2 mg/kg/injection, schedule: Q01DX010 (ip), vehicle: carboxymethylcellulose (CMC)): 104 % of control
T/C (dose: 2.5 mg/kg/injection, schedule: Q01DX010 (ip), vehicle: carboxymethylcellulose (CMC)): 95 % of control and 120 % of control
T/C (dose: 5.0 mg/kg/injection, schedule: Q01DX010 (ip), vehicle: carboxymethylcellulose (CMC)): 100 % of control

O=[N+]([O-])c1ccc([I+]c2ccccc2)cc1
T/C (dose: 1.5 mg/kg/injection, schedule: Q04DX003 (ip), vehicle: saline sonified): 100 % of control
T/C (dose: 5.5 mg/kg/injection, schedule: Q01DX009 (ip), vehicle: saline with Tween-80): 150 % of control
T/C (dose: 8.25 mg/kg/injection, schedule: Q01DX009 (ip), vehicle: saline with Tween-80): 154 % of control
T/C (dose: 12.0 mg/kg/injection, schedule: Q04DX003 (ip), vehicle: saline sonified): 118 % of control
T/C (dose: 16.5 mg/kg/injection, schedule: Q04DX003 (ip), vehicle: saline): 150 % of control
T/C (dose: 25.0 mg/kg/injection, schedule: Q01DX009 (ip), vehicle: saline with Tween-80): 154 % of control
T/C [1]: 150 % of control
T/C [2]: 158 % of control
T/C (dose: 100.0 mg/kg/injection, schedule: Q04DX003 (ip), vehicle: saline sonified): 150 % of control

CCCCNC(C)(C)C(SSSC(c1ccco1)C(C)(C)NCCCC)c1ccco1 (stereo not drawn)
T/C [6]: 115 % of control
T/C [7]: 120 % of control

Cc1cccc(C)c1NC(=O)c1ccccc1Cl
T/C [8]: 113 % of control
T/C [7]: 109 % of control
T/C [9]: 104 % of control

COc1cc(C(=O)O)c2c(c1C)OC(=O)c1c(C)cc(O)c(C=O)c1O2
T/C (dose: 2.0 mg/kg/injection, schedule: Q01DX010 (ip), vehicle: saline): 95 % of control
T/C (dose: 4.0 mg/kg/injection, schedule: Q01DX009 (ip), vehicle: Klucel (hydroxypropylcellulose) (HPC)): 109 % of control
T/C (dose: 4.0 mg/kg/injection, schedule: Q01DX010 (ip), vehicle: saline): 90 % of control and 122 % of control and 123 % of control
T/C (dose: 8.0 mg/kg/injection, schedule: Q01DX010 (ip), vehicle: saline): 90 % of control
T/C (dose: 10.0 mg/kg/injection, schedule: Q04DX003 (ip), vehicle: saline): 104 % of control
T/C (dose: 16.0 mg/kg/injection, schedule: Q01DX010 (ip), vehicle: saline): 113 % of control and 123 % of control
T/C (dose: 20.0 mg/kg/injection, schedule: Q04DX003 (ip), vehicle: saline): 115 % of control
T/C (dose: 40.0 mg/kg/injection, schedule: Q01DX001 (ip), vehicle: saline): 111 % of control
T/C (dose: 80.0 mg/kg/injection, schedule: Q01DX001 (ip), vehicle: saline): 115 % of control
T/C (dose: 80.0 mg/kg/injection, schedule: Q04DX003 (ip), vehicle: saline): 104 % of control

COc1ccc(NCCN(C)C)c2c(=O)c3ccccc3sc12
T/C [1]: 97 % of control
T/C [2]: 101 % of control
T/C [3]: 108 % of control

C/C(Cc1ccccc1)=N/N(C)C
T/C (dose: 25.0 mg/kg/injection, schedule: Q04DX003 (ip), vehicle: saline with Tween-80): 108 % of control
T/C [6]: 100 % of control
T/C [8]: 104 % of control

CC1(C(=O)O)CCC2(C)CCC3(C)C(=CC(=O)C4C5(C)CCC(OC6OC(C(=O)O)C(O)C(O)C6OC6OC(C(=O)O)C(O)C(O)C6O)C(C)(C)C5CCC43C)C2C1 (stereo not drawn)
T/C (dose: 100.0 mg/kg/injection, schedule: Q04DX003 (ip), vehicle: alcohol): 104 % of control
T/C (dose: 200.0 mg/kg/injection, schedule: Q04DX003 (ip), vehicle: alcohol): 104 % of control
T/C (dose: 400.0 mg/kg/injection, schedule: Q04DX003 (ip), vehicle: alcohol): 90 % of control

Nc1nc(F)nc2nc[nH]c12
T/C (dose: 10.0 mg/kg/injection, schedule: Q01DX009 (ip), vehicle: Klucel (hydroxypropylcellulose) (HPC)): 121 % of control
T/C (dose: 20.0 mg/kg/injection, schedule: Q01DX009 (ip), vehicle: Klucel (hydroxypropylcellulose) (HPC)): 121 % of control

COc1ccc(Cc2c3ccccc3cc[n+]2C)cc1Oc1ccc(Cc2c3ccccc3cc[n+]2C)cc1
T/C (dose: 0.78 mg/kg/injection, schedule: Q01DX009 (ip), vehicle: saline): 100 % of control
T/C (dose: 1.56 mg/kg/injection, schedule: Q01DX009 (ip), vehicle: saline): 101 % of control

O=[N+]([O-])c1ccc(S(=O)(=O)Oc2ccccc2)cc1
T/C [1]: 105 % of control
T/C [10]: 100 % of control
T/C [2]: 100 % of control
T/C [4]: 105 % of control
T/C [3]: 105 % of control
T/C [5]: 105 % of control

CC1CCC2(C)CCC3(C)C(=CCC4C5(C)CCC(OC(=O)c6ccccc6)C(C)(C)C5CCC43C)C2C1C (stereo not drawn)
T/C (dose: 75.0 mg/kg/injection, schedule: Q04DX003 (ip), vehicle: saline with Tween-80): 100 % of control
T/C (dose: 150.0 mg/kg/injection, schedule: Q04DX003 (ip), vehicle: saline with Tween-80): 100 % of control
T/C (dose: 300.0 mg/kg/injection, schedule: Q04DX003 (ip), vehicle: saline with Tween-80): 105 % of control

O=S1(=O)CC(Cl)(Br)C1 (tested in a mixture with another compound)
T/C (dose: 100.0 mg/kg/injection, schedule: Q01DX009 (ip), vehicle: Klucel (hydroxypropylcellulose) (HPC)): 91 % of control

N#CCCSC(=S)C1CCCC1=N (stereo not drawn)
T/C [2]: 112 % of control
T/C [3]: 102 % of control

CC(=O)O[C@@H]1c2c(c3c(=O)c4cccc(O)c4c(=O)c=3c2=[N+]=[N-])[C@H](OC(C)=O)[C@@H](OC(C)=O)[C@]1(C)O
T/C (dose: 3.0 mg/kg/injection, schedule: Q01DX009 (ip), vehicle: Klucel (hydroxypropylcellulose) (HPC)): 118 % of control
T/C (dose: 6.0 mg/kg/injection, schedule: Q01DX009 (ip), vehicle: Klucel (hydroxypropylcellulose) (HPC)): 105 % of control

[N-]=[N+]=C1C(=O)NN=C1c1ccccc1
T/C (dose: 25.0 mg/kg/injection, schedule: Q04DX003 (ip), vehicle: Klucel (hydroxypropylcellulose) (HPC)): 104 % of control
T/C [10]: 114 % of control
T/C [4]: 95 % of control

COC(=O)C(CSCSC)NC(=O)/C=C/c1ccccc1Cl (stereo not drawn)
T/C [8]: 100 % of control
T/C [7]: 87 % of control and 104 % of control
T/C [9]: 90 % of control

Cc1cc(C(=O)c2ccccn2)c2cccc(C(F)(F)F)c2n1
T/C (dose: 12.5 mg/kg/injection, schedule: Q01DX009 (ip), vehicle: saline with Tween-80): 95 % of control
T/C [8]: 95 % of control
T/C [3]: 86 % of control
T/C [7]: 90 % of control
T/C [9]: 90 % of control

COc1cc2cc[n+]3c(C)c4ccc(OC)c(OC)c4cc3c2cc1OC (tested in a mixture with another compound)
T/C (dose: 2.0 mg/kg/injection, schedule: Q01DX009 (ip), vehicle: saline): 122 % of control
T/C (dose: 5.0 mg/kg/injection, schedule: Q01DX009 (ip), vehicle: saline): 117 % of control
T/C (dose: 20.0 mg/kg/injection, schedule: Q01DX009 (ip), vehicle: saline): 150 % of control and 192 % of control
T/C (dose: 40.0 mg/kg/injection, schedule: Q01DX009 (ip), vehicle: saline): 168 % of control and 185 % of control

CN/N=C/c1c2c(O)c3c(O)c(C)c4c(c3c1O)C(=O)C(C)(O/C=C/C(OC)C(C)C(OC(C)=O)C(C)C(O)C(C)C(O)C(C)/C=C/C=C(/C)C(=O)N2)O4 (stereo not drawn)
T/C [1]: 90 % of control
T/C [2]: 116 % of control
T/C [3]: 117 % of control
